Results taken from PubChem BioAssay (NCI).
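1) Cells in 96-well plates. 2) Compound, 48 h, 5 concentrations. 3) Linear interpolation between surrounding doses. 4) Unreached endpoint = highest concentration. TGI is the concentration that stops growth completely.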

How the values were obtained:
Experiment in all cases: NCI anticancer screen, dose series, 48 h
[1] = system: 786-0 renal
[2] = system: A549 NSCLC
[3] = system: ACHN renal
[4] = system: CAKI-1 renal
[5] = system: CCRF-CEM leukemia
[6] = system: COLO 205 colon
[7] = system: DLD-1 colon
[8] = system: DMS 114 small cell lung
[9] = system: DMS 273 small cell lung
[10] = system: EKVX NSCLC
[11] = system: HCC-2998 colon
[12] = system: HCT-15 colon
[13] = system: HL-60(TB) leukemia
[14] = system: HOP-62 NSCLC
[15] = system: IGROV1 ovarian
[16] = system: K-562 leukemia
[17] = system: KM20L2 colon
[18] = system: LOX IMVI melanoma
[19] = system: LXFL 529 NSCLC
[20] = system: M14 melanoma
[21] = system: MALME-3M melanoma
[22] = system: MOLT-4 leukemia
[23] = system: OVCAR-4 ovarian
[24] = system: OVCAR-5 ovarian
[25] = system: OVCAR-8 ovarian
[26] = system: RPMI-8226 leukemia
[27] = system: SK-MEL-2 melanoma
[28] = system: SK-MEL-5 melanoma
[29] = system: SK-OV-3 ovarian
[30] = system: SN12C renal
[31] = system: SR leukemia
[32] = system: SW-620 colon
[33] = system: TK-10 renal
[34] = system: U251 CNS
[35] = system: UACC-62 melanoma
[36] = system: XF 498 CNS
[37] = system: A498 renal
[38] = system: BT-549 breast
[39] = system: DU-145 prostate
[40] = system: HCT-116 colon
[41] = system: HOP-92 NSCLC
[42] = system: HS 578T breast
[43] = system: HT29 colon
[44] = system: KM12 colon
[45] = system: MCF7 breast
[46] = system: MDA-MB-231 breast
[47] = system: MDA-MB-435
[48] = system: MDA-N
[49] = system: NCI-H226 lung
[50] = system: NCI-H460 lung
[51] = system: NCI-H522 lung
[52] = system: NCI/ADR-RES ovarian
[53] = system: OVCAR-3 ovarian
[54] = system: PC-3 prostate
[55] = system: RXF 393 renal
[56] = system: SF-268 CNS
[57] = system: SF-295 CNS
[58] = system: SF-539 CNS
[59] = system: SK-MEL-28 melanoma
[60] = system: SNB-19 CNS
[61] = system: SNB-75 CNS
[62] = system: T-47D breast
[63] = system: UACC-257 melanoma
[64] = system: UO-31 renal
[65] = system: M19-MEL melanoma
[66] = system: NCI-H23 lung
[67] = system: SNB-78 CNS

C=C(Cl)Cc1c(O)c2c(c(O)c1CC(=C)Cl)C(=O)c1ccccc1C2=O
TGI [1]: > 100 µM
TGI [2]: > 100 µM
TGI [3]: > 100 µM
TGI [4]: > 100 µM
TGI [5]: > 100 µM
TGI [6]: > 100 µM
TGI [7]: > 100 µM
TGI [8]: > 100 µM
TGI [9]: > 100 µM
TGI [10]: > 100 µM
TGI [11]: > 100 µM
TGI [12]: > 100 µM
TGI [13]: > 100 µM
TGI [14]: > 100 µM
TGI [15]: > 100 µM
TGI [16]: > 100 µM
TGI [17]: > 100 µM
TGI [18]: > 100 µM
TGI [19]: > 100 µM
TGI [20]: > 100 µM
TGI [21]: > 100 µM
TGI [22]: > 100 µM
TGI [23]: > 100 µM
TGI [24]: > 100 µM
TGI [25]: > 100 µM
TGI [26]: > 100 µM
TGI [27]: > 100 µM
TGI [28]: > 100 µM
TGI [29]: > 100 µM
TGI [30]: > 100 µM
TGI [31]: > 100 µM
TGI [32]: > 100 µM
TGI [33]: > 100 µM
TGI [34]: > 100 µM
TGI [35]: > 100 µM
TGI [36]: > 100 µM

Cc1cc(-c2nc3cccc(F)c3s2)ccc1N
TGI [1]: > 100 µM
TGI [37]: > 100 µM
TGI [2]: > 100 µM
TGI [3]: > 100 µM
TGI [38]: > 100 µM
TGI [4]: > 100 µM
TGI [5]: 80.5 µM
TGI [6]: > 100 µM
TGI [39]: > 100 µM
TGI [10]: > 100 µM
TGI [11]: > 100 µM
TGI [40]: > 100 µM
TGI [12]: > 100 µM
TGI [13]: > 100 µM
TGI [14]: > 100 µM
TGI [41]: > 88.2 µM
TGI [42]: > 90.8 µM
TGI [43]: > 100 µM
TGI [15]: > 100 µM
TGI [16]: > 100 µM
TGI [44]: > 100 µM
TGI [18]: > 100 µM
TGI [20]: > 100 µM
TGI [21]: > 100 µM
TGI [45]: > 100 µM
TGI [46]: > 100 µM
TGI [47]: > 100 µM
TGI [48]: > 100 µM
TGI [22]: > 96.1 µM
TGI [49]: > 100 µM
TGI [50]: > 100 µM
TGI [51]: > 100 µM
TGI [52]: > 100 µM
TGI [53]: > 100 µM
TGI [23]: > 100 µM
TGI [24]: > 100 µM
TGI [25]: > 100 µM
TGI [54]: > 100 µM
TGI [26]: > 100 µM
TGI [55]: > 100 µM
TGI [56]: > 86 µM
TGI [57]: > 100 µM
TGI [58]: > 100 µM
TGI [27]: > 100 µM
TGI [59]: > 100 µM
TGI [28]: > 100 µM
TGI [29]: > 100 µM
TGI [30]: > 91.1 µM
TGI [60]: > 100 µM
TGI [61]: 99.4 µM
TGI [31]: > 74.8 µM
TGI [32]: > 100 µM
TGI [62]: > 100 µM
TGI [33]: > 100 µM
TGI [34]: > 100 µM
TGI [63]: > 100 µM
TGI [35]: > 100 µM
TGI [64]: > 100 µM

O=C(/C=C1/Nc2ccc([N+](=O)[O-])cc2NC1O)c1cccc([N+](=O)[O-])c1 (stereo unspecified)
TGI [1]: 47.8 µM
TGI [37]: > 100 µM
TGI [2]: > 100 µM
TGI [3]: > 100 µM
TGI [4]: > 100 µM
TGI [5]: > 100 µM
TGI [6]: > 100 µM
TGI [7]: > 100 µM
TGI [8]: > 100 µM
TGI [9]: > 100 µM
TGI [10]: > 100 µM
TGI [11]: > 100 µM
TGI [40]: > 100 µM
TGI [12]: > 100 µM
TGI [13]: > 100 µM
TGI [14]: > 100 µM
TGI [41]: > 100 µM
TGI [43]: > 100 µM
TGI [15]: > 100 µM
TGI [16]: > 100 µM
TGI [17]: 96.2 µM
TGI [18]: > 100 µM
TGI [19]: > 100 µM
TGI [20]: > 100 µM
TGI [65]: > 100 µM
TGI [21]: > 100 µM
TGI [22]: > 100 µM
TGI [49]: > 100 µM
TGI [66]: > 100 µM
TGI [50]: > 100 µM
TGI [51]: > 100 µM
TGI [53]: > 100 µM
TGI [23]: 11.1 µM
TGI [25]: 48.7 µM
TGI [55]: 65.4 µM
TGI [56]: > 100 µM
TGI [57]: 38.3 µM
TGI [58]: 87.2 µM
TGI [59]: > 100 µM
TGI [28]: > 100 µM
TGI [29]: 57.2 µM
TGI [30]: > 100 µM
TGI [60]: > 100 µM
TGI [61]: > 100 µM
TGI [67]: > 100 µM
TGI [31]: > 100 µM
TGI [32]: > 100 µM
TGI [33]: 88.4 µM
TGI [34]: > 100 µM
TGI [63]: > 100 µM
TGI [35]: > 100 µM
TGI [64]: > 100 µM
TGI [36]: > 100 µM

Nc1ccc([C@H]2C(=O)N[C@H]3CCC[C@H]32)cc1
TGI [2]: > 100 µM
TGI [4]: > 100 µM
TGI [5]: > 100 µM
TGI [6]: > 100 µM
TGI [8]: > 100 µM
TGI [9]: > 100 µM
TGI [10]: > 100 µM
TGI [12]: > 100 µM
TGI [13]: > 100 µM
TGI [43]: > 100 µM
TGI [15]: > 100 µM
TGI [16]: > 100 µM
TGI [44]: > 100 µM
TGI [18]: > 100 µM
TGI [20]: > 100 µM
TGI [65]: > 100 µM
TGI [22]: > 100 µM
TGI [49]: > 100 µM
TGI [66]: > 100 µM
TGI [51]: > 100 µM
TGI [53]: > 100 µM
TGI [25]: > 100 µM
TGI [26]: > 100 µM
TGI [55]: > 100 µM
TGI [56]: > 100 µM
TGI [57]: > 100 µM
TGI [58]: > 100 µM
TGI [59]: > 100 µM
TGI [28]: > 100 µM
TGI [29]: > 100 µM
TGI [30]: > 100 µM
TGI [60]: > 100 µM
TGI [61]: > 100 µM
TGI [32]: > 100 µM
TGI [33]: > 100 µM
TGI [63]: > 100 µM
TGI [35]: > 100 µM
TGI [64]: > 100 µM
TGI [36]: > 100 µM
